For data set [1] the following is noted: cited from earlier work.
The target of another data set is histamine H4 receptor (Homo sapiens, UniProt Q9H3N8). The following applies: cited from earlier work.
For data set [2] the following is noted: rats; 100 mg/kg; cited from earlier work.
Another data set relates to hyperphosphorylated Tau. Kind of data set: Anti-AT8 immunostaining of hyperphosphorylated Tau in hippocampus of 3xTg-AD mice. The following applies: 17-month-old 3xTg-AD mice.
For data set [3], the system named is APP/PS1 mice. Kind of data set: Morris Water Maze test, APP/PS1 mice. The conditions noted are these: 8-month-old APP/PS1 mice; for escape latency to find the hidden platform: FIG. 6C.
Data set [4] concerns APP/PS1 mice. Kind of data set: Y-maze test, APP/PS1 mice. The conditions noted are these: 8-month-old APP/PS1 mice.
Data set [5] concerns 3xTg-AD mice. Kind of data set: Novel object recognition test, 3xTg-AD mice. The following applies: 17-month-old 3xTg-AD mice; VUF6002 2.5 mg/kg daily about 3 months; FIG. 3C.
Data set [6] concerns 3xTg-AD mice. The data set can be described thus: Barnes maze test, 3xTg-AD mice. The conditions noted are these: 17-month-old 3xTg-AD mice, VUF6002 2.5 mg/kg daily about 3 months.
In data set [7] the test system is STZ-treated mice. The data set can be described thus: Y-maze spontaneous alternation test, streptozocin-induced sporadic AD mouse model. The conditions noted are these: STZ ICV mice; VUF6002 2.5 mg/kg i.p. daily for 21 days; FIG. 1B.
The test system of data set [8] is 3xTg-AD mice. Kind of data set: Y-maze test, 3xTg-AD mice. The conditions noted are these: 17-month-old 3xTg-AD mice; VUF6002 2.5 mg/kg daily about 3 months; FIG. 3B.
The conditions of data set [9]: cited from earlier work. The source holds these as a separate data set.
Data set [10] concerns STZ-treated mice. Kind of data set: Barnes maze test, streptozocin-induced sporadic AD mouse model. The following applies: STZ ICV mice, VUF6002 2.5 mg/kg i.p. 21 days.
The subject of another data set is microglia. The data set can be described thus: Anti-IBA-1 immunostaining of microglia in hippocampal CA1 of 3xTg-AD mice. The following applies: 17-month-old 3xTg-AD mice.
For data set [11], the system named is APP/PS1 mice. Kind of data set: Novel object recognition test, APP/PS1 mice. The conditions noted are these: 8-month-old APP/PS1 mice; VUF6002 2.5 mg/kg i.p. daily 1 month; vs vehicle; FIG. 2C.

Each structure is given as a SMILES string. Counter-ions that a name gives are not always drawn.

histamine H4 receptor, sequence (Q9H3N8 whole entry, species assumed): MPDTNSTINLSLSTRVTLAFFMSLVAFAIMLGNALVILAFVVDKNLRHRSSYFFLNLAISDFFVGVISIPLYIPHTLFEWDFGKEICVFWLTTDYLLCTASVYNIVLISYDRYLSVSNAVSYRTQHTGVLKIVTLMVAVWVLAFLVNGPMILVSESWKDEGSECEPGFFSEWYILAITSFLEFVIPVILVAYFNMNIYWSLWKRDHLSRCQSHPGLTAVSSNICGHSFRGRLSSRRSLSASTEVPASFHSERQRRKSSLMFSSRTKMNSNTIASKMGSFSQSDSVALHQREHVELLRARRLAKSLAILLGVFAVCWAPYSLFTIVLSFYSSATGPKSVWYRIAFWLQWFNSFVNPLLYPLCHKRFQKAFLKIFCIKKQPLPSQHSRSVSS

`CC(C)c1cc(N2CC[C@@H](N)C2)nc(N)n1` [JNJ39758979]: the “severe side effects in humans” value in data set [1] is given as “may induces agranulocytosis in humans”.
Regarding `CN1CCN2c3ccccc3Cc3ccccc3C2C1` (stereo not shown) [Mianserin], the “binding to histamine receptors” value on histamine H4 receptor is “can bind to histamine H1, H3, and H4 receptors”.
As to `S=C(NC1CCCCC1)N1CCC(c2cnc[nH]2)CC1` [Thioperamide], the “binding to histamine receptors” value at histamine H4 receptor is “can bind to histamine H3 and H4 receptors”.
Regarding `CN1CCN(C(=O)c2nc3cc(Cl)ccc3[nH]2)CC1` [VUF6002, 1-[(5-chloro-1H-benzimidazol-2-yl)carbonyl]-4-methylpiperazine maleate], in data set [2], the anti-inflammation effect result was “revealed an anti-inflammation effect”. Also, the “mean intensity of AT8 (p-Tau), CA1 region of hippocampus” value in the data set with hyperphosphorylated Tau (VUF6002 2.5 mg/kg 3 months, FIG. 4C-4D) is given as “markedly reduces the mean intensity of AT8”. Besides, the “long-term spatial memory during the training phase” value in the data set with APP/PS1 mice [3] (VUF6002 2.5 mg/kg i.p. daily 1 month, FIG. 2D) is “markedly improved”. The “number of platform crosses, probe test” value with APP/PS1 mice [3] (VUF6002 2.5 mg/kg i.p. daily 1 month, vs vehicle, FIG. 2E) is “make more attempts to swim across the original location of the platform”. The “time spent in the target quadrant, probe test” value in the data set on APP/PS1 mice [3] (VUF6002 2.5 mg/kg i.p. daily 1 month, vs vehicle, FIG. 2F) is “spend more time on searching the platform in the target quadrant”; in the data set on 3xTg-AD mice [6] (vs vehicle, FIG. 3F), “spend more time in the target quadrant”. Besides, in the data set on APP/PS1 mice [4] (VUF6002 2.5 mg/kg i.p. daily 1 month, vs vehicle, FIG. 2B), the spontaneous alternation rate entry is “significantly elevates”. The “short-term memory, performance on novel object recognition test” value in the data set with 3xTg-AD mice [5] is listed as “completely reverse the memory deficit”. Also, the “performance during the training phase of Barnes Maze test” value in the data set with 3xTg-AD mice [6] (FIG. 3D) is “marked improvement”. In the data set with 3xTg-AD mice [6] (vs vehicle, FIG. 3E), the “primary errors to find the target hole, probe test” value is recorded as “make fewer errors to find the target hole”. Moreover, the “spontaneous alternation rate (short-term spatial working memory)” value with STZ-treated mice [7] was “completely reversed”. Also, the “short-term memory, performance on Y-maze” value with 3xTg-AD mice [8] was “completely reverse the memory deficit”. In data set [9], the “severe side effect on animal models” value is recorded as “has not been reported to have a severe side effect”. Further, the “error to find the target hole, probe trial” value with STZ-treated mice [10] (FIG. 1E) is “reduces the error to find the target hole”. Moreover, in the data set with STZ-treated mice [10] (FIG. 1F), the “time spent in target quadrant, probe trial” value was “markedly increases the time spent in target quadrant”. In addition, the “latency to get into the hidden escape box (long-term spatial memory)” value with STZ-treated mice [10] (day 25 post injection, FIG. 1D) was “completely reverses the STZ-induced long-term memory deficits”. Also, in the data set on microglia (VUF6002 2.5 mg/kg 3 months, FIG. 5A), the “intensity of Iba-1-positive microglia, hippocampal CA1 region” value is “markedly reduces the intensity of Iba-1-positive”. For the same compound, in the data set with microglia (VUF6002 2.5 mg/kg, FIG. 5B), the “density of microglia, hippocampal CA1 region” value is “significantly reduces the density of microglia”. The recognition index entry in the data set on APP/PS1 mice [11] is recorded as “significantly elevates”.
On to `C[C@@H]1C[C@H]2[C@@H]3CCC4=CC(=O)C=C[C@]4(C)[C@@]3(F)[C@@H](O)C[C@]2(C)[C@@]1(O)C(=O)CO` [dexamethasone, (11β,16α)-9-Fluoro-11,17,21-trihydroxy-16-methylpregna-1,4-diene-3,20-dione], for which the “reduction of phosphorylated Tau (AT8) intensity, hippocampal subiculum area” value in the data set with hyperphosphorylated Tau (dexamethasone from 14- to 17-month-old, FIG. 7C-7D) is reported as 53.3%. Also, the “escape latency to find the hidden platform” value in the data set with APP/PS1 mice [3] (dexamethasone 1 mg/kg i.p. one month, vs vehicle) is reported as “does not significantly reduce the latency”; in the data set with APP/PS1 mice [3] (dexamethasone 1 mg/kg i.p. two months) it was “reverses the long-term memory deficits”. In addition, in the data set with APP/PS1 mice [3] (dexamethasone 1 mg/kg i.p. two months, vs vehicle, FIG. 6D), the “number of platform crosses, probe test” value is “conspicuously increased number of platform crosses”. Moreover, the “time spent in the target quadrant, probe test” value in the data set on APP/PS1 mice [3] (dexamethasone 1 mg/kg i.p. two months, vs vehicle, FIG. 6E) is on record as “conspicuously increased”. Moreover, the “spontaneous alternation rate (short-term spatial working memory)” value with APP/PS1 mice [4] (dexamethasone 1 mg/kg i.p. two months, FIG. 6A) was “prominently improves the short-term memory deficits”.
